The results in this text go back to ChEMBL document CHEMBL4616596, “Structural insights into the active site of poly(ADP-ribose) glycohydrolase using docking modes of 6-hydroxy-3H-xanthen-3-one derivative inhibitors” (Bioorg Med Chem, 2020).

For this experiment, the target named is Poly(ADP-ribose) glycohydrolase (Homo sapiens, UniProt Q86W56). In words: Inhibition of recombinant human PARG assessed as mono(ADP-R) release using PAR as substrate measured after 15 mins by HPLC analysis.

pIC50: −log10 of the molar value. Where only a bound is given, the exact number is not on record here.

Chain of Poly(ADP-ribose) glycohydrolase (Q86W56 whole entry): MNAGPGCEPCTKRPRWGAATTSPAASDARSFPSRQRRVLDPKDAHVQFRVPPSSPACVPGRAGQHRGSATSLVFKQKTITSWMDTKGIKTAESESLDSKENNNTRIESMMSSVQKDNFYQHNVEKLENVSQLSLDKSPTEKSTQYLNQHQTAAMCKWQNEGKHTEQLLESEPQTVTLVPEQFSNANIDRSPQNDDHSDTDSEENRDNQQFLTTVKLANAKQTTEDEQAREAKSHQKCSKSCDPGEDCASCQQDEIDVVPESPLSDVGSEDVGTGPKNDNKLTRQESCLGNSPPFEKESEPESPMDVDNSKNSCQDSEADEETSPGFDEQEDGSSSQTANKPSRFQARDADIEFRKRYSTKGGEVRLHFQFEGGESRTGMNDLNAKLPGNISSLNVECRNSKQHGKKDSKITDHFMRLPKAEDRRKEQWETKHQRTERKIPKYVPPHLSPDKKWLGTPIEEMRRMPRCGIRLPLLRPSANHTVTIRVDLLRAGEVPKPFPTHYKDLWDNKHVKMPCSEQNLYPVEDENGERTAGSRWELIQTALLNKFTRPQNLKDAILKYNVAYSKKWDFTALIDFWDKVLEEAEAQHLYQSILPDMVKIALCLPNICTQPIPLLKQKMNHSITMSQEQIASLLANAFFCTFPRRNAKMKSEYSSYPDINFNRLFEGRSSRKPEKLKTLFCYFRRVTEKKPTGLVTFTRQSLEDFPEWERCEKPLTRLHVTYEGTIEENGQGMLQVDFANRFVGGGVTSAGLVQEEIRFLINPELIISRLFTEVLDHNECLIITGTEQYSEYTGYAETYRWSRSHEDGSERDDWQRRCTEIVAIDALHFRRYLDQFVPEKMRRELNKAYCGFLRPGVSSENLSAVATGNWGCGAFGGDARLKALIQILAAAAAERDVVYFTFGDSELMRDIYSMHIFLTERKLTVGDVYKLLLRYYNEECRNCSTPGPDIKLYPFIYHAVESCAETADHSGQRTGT

For orientation: pIC50 means the negative decadic logarithm of the IC50, by convention in mol/L. As to `O=C(O)c1c(Cl)ccc(Cl)c1-c1c2cc(I)c(=O)c(I)c-2oc2c(I)c(O)c(I)cc12`, the pIC50 is 4.21.
Take `O=C(O)c1ccccc1-c1c2cc(I)c(=O)c(I)c-2oc2c(I)c(O)c(I)cc12`: the pIC50 was 3.92.
The same measure for `O=C(O)c1ccccc1-c1c2cc(Br)c(=O)c(Br)c-2oc2c(Br)c(O)c(Br)cc12`: < 3.52; for `O=C(O)c1c(Cl)c(Cl)c(Cl)c(Cl)c1-c1c2cc(Br)c(=O)c(Br)c-2oc2c(Br)c(O)c(Br)cc12`: 3.98; for `O=C(O)c1c(Cl)c(Cl)c(Cl)c(Cl)c1-c1c2cc(I)c(=O)c(I)c-2oc2c(I)c(O)c(I)cc12` [ROSE BENGAL FREE ACID]: 4.53.
